Measurements published in ChEMBL document CHEMBL4177527, “Synthesis and biological evaluation of a D-ring-contracted analogue of lamellarin D” (Bioorg Med Chem, 2017).
Active and inactive are the calls of the source. No cut-off for these calls is given here.

Columns and labels:
CCRF-CEM [1] = assay: Cytotoxicity against human CCRF-CEM cells assessed as reduction in cell viability after 72 hrs by resazurin reduction assay; format: functional, cell-based
ADR5000 cell line = assay: Cytotoxicity against human CEM/ADR5000 cells assessed as reduction in cell viability after 72 hrs by resazurin reduction assay; format: functional, cell-based; conditions: ADR5000, 72 h
[2] = Resistance index, ratio of IC50 for human CEM/ADR5000 cells to IC50 for human CCRF-CEM cells; format: functional
CCRF-CEM [3] = assay: Cell cycle arrest in human CCRF-CEM cells assessed as accumulation at S phase at 0.01 uM after 6 hrs by propidium iodide staining-based flow cytometry; format: functional
CCRF-CEM [4] = assay: Cell cycle arrest in human CCRF-CEM cells assessed as accumulation at G2/M phase after 24 hrs by propidium iodide staining-based flow cytometry; format: functional
CCRF-CEM [5] = assay: Induction of apoptosis in human CCRF-CEM cells at 0.01 uM after 72 hrs by propidium iodide staining-based flow cytometry; format: functional, cell-based
CCRF-CEM [6] = assay: Cell cycle arrest in human CCRF-CEM cells assessed as accumulation at S phase at 0.055 to 0.44 uM after 6 to 72 hrs by propidium iodide staining-based flow cytometry; format: functional
CCRF-CEM [7] = assay: Cell cycle arrest in human CCRF-CEM cells assessed as accumulation at G2/M phase at 0.055 to 0.44 uM after 6 to 72 hrs by propidium iodide staining-based flow cytometry; format: functional
CCRF-CEM [8] = assay: Induction of apoptosis in human CCRF-CEM cells at 0.055 to 0.44 uM after 24 to 72 hrs by propidium iodide staining-based flow cytometry; format: functional, cell-based
CCRF-CEM [9] = assay: Cell cycle arrest in human CCRF-CEM cells assessed as accumulation at SubG1 phase at 0.055 to 0.44 uM after 72 hrs by propidium iodide staining-based flow cytometry; format: functional

Row | SMILES | IC50 (CCRF-CEM [1]) [nM] | IC50 (ADR5000 cell line) [nM] | Ratio IC50 [2] | Activity (CCRF-CEM [3]) | Activity (CCRF-CEM [4]) | Activity (CCRF-CEM [5]) | Activity (CCRF-CEM [6]) | Activity (CCRF-CEM [7]) | Activity (CCRF-CEM [8]) | Activity (CCRF-CEM [9])
1 | CC[C@@]1(O)C(=O)OCc2c1cc1n(c2=O)Cc2cc3ccccc3nc2-1 [CAMPTOTHECIN] | 3 | 11 | 3.7 | Active | Dose-dependent effect | Active |  |  |  | 
2 | COc1cc(-c2c3c(n4ccc5cc(O)c(OC)cc5c24)C(=O)c2cc(O)c(OC)cc2-3)ccc1O | 113 | 172 | 1.5 |  |  |  | inactive | inactive | Active | Active
